Laboratory results from ChEMBL document CHEMBL5154935, “Design, Synthesis, and Biological Evaluation of Novel Evodiamine Derivatives as Potential Antihepatocellular Carcinoma Agents” (J Med Chem, 2022).

Columns and labels:
[1] = tested on: HepG2; test: Antiproliferative activity against human HepG2 cells treated for 72 hrs by MTT assay; type: functional, cell-based; conditions: HepG2, 72 h
[2] = tested on: Huh-7; test: Antiproliferative activity against human Huh-7 cells treated for 72 hrs by MTT assay; type: functional, cell-based; conditions: Huh-7, 72 h
[3] = tested on: SK-HEP1; test: Antiproliferative activity against human SK-HEP1 cells treated for 72 hrs by MTT assay; type: functional, cell-based; conditions: SK-HEP1, 72 h
[4] = tested on: HCCLM9; test: Antiproliferative activity against human HCCLM9 cells treated for 72 hrs by MTT assay; type: functional, cell-based; conditions: HCCLM9, 72 h
[5] = Antiproliferative activity against human L02 cells treated for 72 hrs by MTT assay; type: toxicity, cell-based
[6] = tested on: SMMC-7721; test: Antiproliferative activity against human SMMC-7721 cells treated for 72 hrs by MTT assay; type: functional, cell-based; conditions: SMMC-7721, 72 h
[7] = biological target: T1, DNA topoisomerase 1 (Homo sapiens) (UniProt P11387); test: Inhibition of Top1 (unknown origin) assessed as inhibition of relaxation of supercoiled pBR322 plasmid DNA at 50 uM incubated for 25 mins by ethidium bromide staining based agarose gel electrophoresis analysis relative to control
T1 sequence (whole entry): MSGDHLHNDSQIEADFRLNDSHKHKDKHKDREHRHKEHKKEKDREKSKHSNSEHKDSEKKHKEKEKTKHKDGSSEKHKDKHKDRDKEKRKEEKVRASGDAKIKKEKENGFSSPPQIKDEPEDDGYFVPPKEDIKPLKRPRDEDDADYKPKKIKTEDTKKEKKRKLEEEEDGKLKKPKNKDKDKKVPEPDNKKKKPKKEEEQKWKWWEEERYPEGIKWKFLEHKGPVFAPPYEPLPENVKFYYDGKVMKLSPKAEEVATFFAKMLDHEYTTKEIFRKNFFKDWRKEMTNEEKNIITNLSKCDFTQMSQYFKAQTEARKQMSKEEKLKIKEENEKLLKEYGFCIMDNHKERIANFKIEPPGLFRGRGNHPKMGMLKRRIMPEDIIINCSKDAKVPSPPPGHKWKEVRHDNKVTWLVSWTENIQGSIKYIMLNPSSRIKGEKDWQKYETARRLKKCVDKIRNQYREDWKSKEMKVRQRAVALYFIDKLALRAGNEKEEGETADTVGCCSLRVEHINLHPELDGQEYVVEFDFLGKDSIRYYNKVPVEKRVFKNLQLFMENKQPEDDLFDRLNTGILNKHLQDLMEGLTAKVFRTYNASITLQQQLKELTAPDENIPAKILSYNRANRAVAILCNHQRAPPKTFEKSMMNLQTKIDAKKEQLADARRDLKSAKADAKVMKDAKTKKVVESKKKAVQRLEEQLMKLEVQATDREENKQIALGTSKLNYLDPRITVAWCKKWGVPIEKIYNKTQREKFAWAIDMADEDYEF

[8] = biological target: T1, DNA topoisomerase 1 (Homo sapiens); test: Inhibition of Top1 (unknown origin) assessed as inhibition of relaxation of supercoiled pBR322 plasmid DNA at 12.5 uM incubated for 25 mins by ethidium bromide staining based agarose gel electrophoresis analysis relative to control
[9] = biological target: DNA topoisomerase 2-alpha (Homo sapiens) (UniProt P11388); test: Inhibition of human Top2-alpha expressed in baculovirus assessed as inhibition of relaxation of supercoiled pBR322 plasmid DNA at 100 uM incubated for 30 mins in presence of ATP by ethidium bromide staining based agarose gel electrophoresis analysis relative to control
Sequence of DNA topoisomerase 2-alpha (Homo sapiens) (P11388 whole entry): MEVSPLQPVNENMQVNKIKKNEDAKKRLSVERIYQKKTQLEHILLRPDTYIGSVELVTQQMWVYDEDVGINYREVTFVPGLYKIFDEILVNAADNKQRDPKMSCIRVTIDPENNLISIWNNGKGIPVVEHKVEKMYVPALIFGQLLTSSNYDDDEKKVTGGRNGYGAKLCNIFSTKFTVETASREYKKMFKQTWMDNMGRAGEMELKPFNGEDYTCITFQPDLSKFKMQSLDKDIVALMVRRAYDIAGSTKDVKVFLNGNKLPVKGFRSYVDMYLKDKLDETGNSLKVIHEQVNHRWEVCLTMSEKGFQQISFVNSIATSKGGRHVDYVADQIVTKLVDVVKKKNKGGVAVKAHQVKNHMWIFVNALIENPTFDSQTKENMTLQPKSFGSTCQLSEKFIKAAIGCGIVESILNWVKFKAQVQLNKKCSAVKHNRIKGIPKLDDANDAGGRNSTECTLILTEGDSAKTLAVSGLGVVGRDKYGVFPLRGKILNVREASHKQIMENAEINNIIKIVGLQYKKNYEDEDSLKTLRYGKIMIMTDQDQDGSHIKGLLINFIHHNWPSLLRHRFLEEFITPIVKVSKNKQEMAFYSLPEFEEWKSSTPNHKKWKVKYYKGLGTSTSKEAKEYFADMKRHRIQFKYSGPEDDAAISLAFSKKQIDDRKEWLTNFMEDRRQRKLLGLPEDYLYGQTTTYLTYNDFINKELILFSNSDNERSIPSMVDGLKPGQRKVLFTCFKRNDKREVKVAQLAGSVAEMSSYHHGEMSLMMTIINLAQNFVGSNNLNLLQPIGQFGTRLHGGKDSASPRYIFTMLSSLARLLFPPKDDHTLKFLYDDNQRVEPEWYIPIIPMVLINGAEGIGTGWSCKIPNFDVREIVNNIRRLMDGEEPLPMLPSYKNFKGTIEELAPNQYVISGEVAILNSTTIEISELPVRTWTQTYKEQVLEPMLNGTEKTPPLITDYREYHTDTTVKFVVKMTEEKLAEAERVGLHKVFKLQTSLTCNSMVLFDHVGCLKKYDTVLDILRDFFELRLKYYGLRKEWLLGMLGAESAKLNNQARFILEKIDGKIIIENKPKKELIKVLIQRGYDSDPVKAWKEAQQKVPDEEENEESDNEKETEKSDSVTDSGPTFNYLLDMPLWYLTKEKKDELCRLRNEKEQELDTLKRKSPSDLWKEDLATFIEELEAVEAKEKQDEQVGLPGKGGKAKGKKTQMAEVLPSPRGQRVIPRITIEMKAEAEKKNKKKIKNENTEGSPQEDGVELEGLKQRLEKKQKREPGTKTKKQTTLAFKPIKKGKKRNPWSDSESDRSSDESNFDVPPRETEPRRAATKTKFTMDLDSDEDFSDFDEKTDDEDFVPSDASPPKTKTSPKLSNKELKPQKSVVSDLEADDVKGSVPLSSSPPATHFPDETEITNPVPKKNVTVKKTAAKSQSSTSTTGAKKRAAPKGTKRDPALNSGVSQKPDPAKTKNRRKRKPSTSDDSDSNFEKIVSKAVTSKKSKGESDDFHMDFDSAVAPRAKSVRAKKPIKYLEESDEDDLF

Row | SMILES | IC50 [1] | IC50 [2] | IC50 [3] | IC50 [4] | IC50 at 72 h [5] | IC50 [6] | inhibition [7] | inhibition [8] | inhibition [9]
1 | COc1ccc2[nH]c3c(c2c1)CCN1C(=O)c2cc(F)ccc2N(c2cc(C)cc(F)c2)C31 (stereo unspecified) | 7.3 µM | 6.99 µM | 7.3 µM | 12 µM | > 6 µM | 8.15 µM |  |  | 
2 | COc1ccc2[nH]c3c(c2c1)CCN1C(=O)c2cc(F)ccc2N(c2cc(F)ccc2OC)C31 (stereo unspecified) | > 18 µM | > 18 µM | > 18 µM | > 18 µM | > 6 µM | > 18 µM |  |  | 
3 | CCOc1ccc2[nH]c3c(c2c1)CCN1C(=O)c2cc(F)cc(F)c2N(c2cccc(F)c2)C31 (stereo unspecified) | 0.85 µM | 0.6 µM | 1.34 µM | 0.89 µM | 1.8 µM | 0.92 µM | 66.7% | 50.8% | 48.3%
4 | COc1ccc2[nH]c3c(c2c1)CCN1C(=O)c2cc(F)ccc2N(c2ccc(F)c(F)c2)C31 (stereo unspecified) | 1.34 µM | 1.19 µM | 1.35 µM | 2.67 µM | 3.46 µM | 1.48 µM |  |  | 
5 | COc1cc(F)cc(N2c3ccc(F)cc3C(=O)N3CCc4c([nH]c5ccc(OC)cc45)C32)c1 (stereo unspecified) | 2.91 µM | 3.66 µM | 3.15 µM | 4.21 µM | 5.78 µM | 3.98 µM |  |  | 
6 | COc1ccc2[nH]c3c(c2c1)CCN1C(=O)c2cc(F)ccc2N(c2cc(F)ccc2C)C31 (stereo unspecified) | 7.19 µM | 11.2 µM | 8.91 µM | > 18 µM | > 6 µM | 9.18 µM |  |  | 
7 | COc1ccc2[nH]c3c(c2c1)CCN1C(=O)c2cc(F)ccc2N(c2cc(F)cc(F)c2)C31 (stereo unspecified) | 2.91 µM | 3.61 µM | 3.97 µM | 6.34 µM | > 6 µM | 2.97 µM |  |  | 
8 | COc1ccc2[nH]c3c(c2c1)CCN1C(=O)c2cc(F)ccc2N(c2cc(F)cc(Cl)c2)C31 (stereo unspecified) | 3.92 µM | 4.87 µM | 5.01 µM | 7.05 µM | 5.44 µM | 5.11 µM |  |  | 
9 | COc1ccc2[nH]c3c(c2c1)CCN1C(=O)c2cc(F)ccc2N(c2ccc(OC)c(F)c2)C31 (stereo unspecified) | 4.67 µM | 4.32 µM | 4.55 µM | 6.04 µM | > 6 µM | 4.38 µM |  |  | 
10 | O=C1c2cc(F)cc(F)c2N(c2cccc(F)c2)C2c3[nH]c4ccc(Cl)cc4c3CCN12 (stereo unspecified) | 0.68 µM | 0.29 µM | 0.11 µM | 0.14 µM | 1.37 µM | 0.77 µM | 90.1% | 75.4% | 65.2%
11 | COc1ccc2[nH]c3c(c2c1)CCN1C(=O)c2cc(F)c(F)cc2N(c2cccc(F)c2)C31 (stereo unspecified) | 6.98 µM | 7.69 µM | 7.21 µM | 10.8 µM | > 6 µM | 7.14 µM |  |  | 
12 | COc1ccc2[nH]c3c(c2c1)CCN1C(=O)c2cc(F)ccc2N(c2cc(F)ccc2F)C31 (stereo unspecified) | 2.8 µM | 7.75 µM | 5.78 µM | 3.78 µM | 4.67 µM | 3.98 µM |  |  | 
13 | COc1ccc2[nH]c3c(c2c1)CCN1C(=O)c2cc(F)ccc2N(c2ccc(Cl)c(F)c2)C31 (stereo unspecified) | 6.44 µM | 7.68 µM | 8.9 µM | 6.9 µM | 2.69 µM | 6.92 µM |  |  | 
14 | COc1ccc2[nH]c3c(c2c1)CCN1C(=O)c2cc(F)ccc2N(c2ccc(Br)c(F)c2)C31 (stereo unspecified) | 15.9 µM | > 18 µM | > 18 µM | > 18 µM | > 6 µM | > 18 µM |  |  | 
15 | COc1ccc2[nH]c3c(c2c1)CCN1C(=O)c2cc(F)ccc2N(c2cc(F)cc(Br)c2)C31 (stereo unspecified) | 4.36 µM |  | 4.21 µM | 7.75 µM | 5.97 µM | 5.77 µM |  |  | 
16 | COc1ccc2[nH]c3c(c2c1)CCN1C(=O)c2cc(F)ccc2N(c2cc(F)ccc2Cl)C31 (stereo unspecified) | 8.71 µM | 11.5 µM | 16.5 µM | > 18 µM | > 6 µM | 10.9 µM |  |  | 
17 | CC[C@@]1(O)C(=O)OCc2c1cc1n(c2=O)Cc2cc3ccccc3nc2-1 |  |  |  |  |  |  |  |  | 70.2%
18 | O=C1c2cc(F)cc(F)c2N(c2cccc(F)c2)C2c3[nH]c4ccccc4c3CCN12 (stereo unspecified) | 0.39 µM | 0.03 µM | 0.27 µM | 0.28 µM | 0.95 µM | 0.27 µM | 94.4% | 27.7% | 52.6%
19 | COc1ccc2[nH]c3c(c2c1)CCN1C(=O)c2cc(F)ccc2N(c2ccc(C)c(F)c2)C31 (stereo unspecified) | 4.62 µM | 6.34 µM | 6.96 µM | 6.62 µM | > 6 µM | 5.9 µM |  |  | 
20 | COc1ccc2[nH]c3c(c2c1)CCN1C(=O)c2cc(F)ccc2N(c2cc(F)ccc2Br)C31 (stereo unspecified) | 13.1 µM | 11.4 µM | 14.7 µM | > 18 µM | > 6 µM | 13 µM |  |  | 
21 | Cc1ccc2[nH]c3c(c2c1)CCN1C(=O)c2cc(F)cc(F)c2N(c2cccc(F)c2)C31 (stereo unspecified) | 0.51 µM | 0.02 µM | 0.48 µM | 0.31 µM | 1.4 µM | 0.49 µM | 83.7% | 7.29% | 67.6%
22 | COc1ccc2[nH]c3c(c2c1)CCN1C(=O)c2cc(F)cc(F)c2N(c2cccc(F)c2)C31 (stereo unspecified) | 0.27 µM | 0.23 µM | 0.27 µM | 39 µM | 1.56 µM | 0.35 µM | 48.4% | 20.1% | 65.2%
